Patent US20240199601A1, “QUINONE COMPOUND AND PHARMACEUTICAL USE THEREOF” (NANJING SHUPENG LIFE SCIENCE CO., LTD., priority 2021, published 2024)

Assays:
[1] = system: autophagy related protein (LC3B); assay: LC3B expression in RAW264.7 cells (protein hybridization); format: cell-based; settings: different concentrations, 24 hours
Method: RAW264.7 cells were inoculated into two six-well plates and enabled to grow to a density of about 90%, and SP3101 and SP3102 of different concentrations were added, respectively. 24 hours later, the cells were lysed with a radio immunoprecipitation assay (RIPA) lysis buffer, and the expression of proteins was detected by protein hybridization.
Phosphorylation of serine at the 127th site of AMPK is used as an activation marker. […] It can be seen that the compounds, represented by the SP3101 and the SP3102, of the present invention are used as an AMPK agonist.

[2] = system: inflammatory pain model (complete Freund's adjuvant); assay: Inflammatory pain model (complete Freund's adjuvant), mechanical pain threshold; format: in vivo, SD rats; settings: rats
Method: 4 SD rats with a body weight of 200-250 g were used as a blank control (NC), and normal saline was injected into the soles of the left feet of the rats. Inflammatory pain models of 18 rats were constructed, that is to say, 100 μL of a complete Freund's adjuvant was injected into soles of the left feet of the rats, mechanical pain thresholds of the left feet were detected by an ALMEMO2490 data collector 24 hours later, 2 rats with a pain threshold of greater than 15 were abandoned, and the other 16 rats were randomly divided into 4 groups with 4 rats in each group and then administered with water as a positive control (PC), SP3101 (20 mg/kg), PQQ (20 mg/kg) and ibuprofen (25 mg/kg/day) by gavage, respectively.

[3] = system: inflammatory pain model with AMPK inhibited; assay: Long-acting analgesic mechanism: CFA pain model with AMPK inhibitor compound c; format: in vivo, SD rats; settings: compound c (Dorsomorphin) into caudal vein half an hour before oral SP3101 20 mg/kg, rats
Method: Similar to the modeling method in Activity Test 1, 100 uL of a complete Freund's adjuvant was injected into the soles of the left feet of SD rats with a body weight of 200-250 g, mechanical pain thresholds of the left feet were detected by an ALMEMO2490 data collector 24 hours later, and the rats with a pain threshold of greater than 15 were abandoned. On the second day of modeling, 100 μL of a compound c as an AMPK inhibitor (Dorsomorphin, CAS No.866405-64-3, CC, 0.4 mg/ml) was injected into the caudal vein of each rat, the rats were orally administered with SP3101 (20 mg/kg) half an hour later, and the pain thresholds were detected after 1.5 hours and 24 hours, respectively.

[4] = system: chronic constriction injury (CCI) model; assay: Neuropathic pain, CCI model of the sciatic nerve, Von Frey; format: in vivo, B6 mice; settings: 40 mg/kg by gavage, 1.5, 24 and 48 hours after administration, CCI mice, p<0.01
From the text: A CCI model was used for realizing neuropathic pain. 6- to 8-week-old B6 mice were anesthetized, shaved from the roots of the left legs to parts about 1-2 mm higher than the horizontal lines of the tail root bones, and cut horizontally to obtain small wounds. Muscles were bluntly separated by hemostatic forceps, the sciatic nerves were found and picked out with elbow tweezers, and 4-0 chromium-containing catgut sutures soaked in sterile normal saline in advance were picked out with another elbow tweezer. Three catgut sutures were penetrated through the sciatic nerve of each mouse and ligatured in an upper part, a middle part and a lower part at a distance of 1 mm, respectively at an appropriate intensity enabling surrounding muscles to have small and transient twitches. […]
On day 7 after surgery, mechanical pain thresholds of the mice were detected by using Von Frey fibrils. […] Then, the mice were stimulated again at an adjacent lower intensity, and the intensity interval of first positive responses and negative responses was recorded. […]
The test mice were divided into three groups: an unmolded group, a molded solvent group and a molded administration group. 0.5% methylcellulose was used as a solvent, SP3101 was used as a drug and administered at a dose of 40 mg/kg according to the body weight each time, and the pain thresholds were detected 1.5, 24, 48 and 72 hours after administration.

[5] = system: movement of the mice in an open field; assay: Sedation test, open field test (OFT); format: in vivo, B6 mice; settings: single intraperitoneal injection 20 or 50 mg/kg, 2 hours after administration
Method: A total of 15 12-week-old male B6 mice were selected and allowed to adapt to the environment for three days. The mice were randomly divided into 3 groups including: (1) a blank control group (n=5), (2) a low-dose SP3101 group at a dose of 20 mg/kg (n=5) and (3) a high-dose SP3101 group at a dose of 50 mg/kg (n=5). The mice were administered by intraperitoneal injection at a single dose according to the groups, where the mice in the blank control group were administered with an equal volume of normal saline by intraperitoneal injection. 2 hours after the administration, the mice were traced by a video tracking and detection system in an open field test (OFT), followed by behavioral evaluation.

AMPK = AMPK phosphorylation level in a variety of cells; format: cell-based; settings: 100 nM

## O=C1C(=O)c2nc(O)cc(C(=O)O)c2-c2[nH]ccc21 [SP3101, 4,5-dioxo-4,5-dihydro-1H-pyrrolo[2,3-f]quinone-7-hydroxy-9-carboxylic acid]
[1]
  expression of autophagy related protein (LC3B): also increased
[2]; CFA inflammatory pain model, oral
  overall analgesic profile: rapid analgesic effect and a long-acting analgesic effect
[2]; single oral 20 mg/kg, compared with model group (PC)
  analgesic effect on day 5-7: the analgesic effect is reduced
[2]; single oral dose (SP3101 20 mg/kg)
  duration of the analgesic effect: 72 h
[2]; single oral dose (SP3101 20 mg/kg), mechanical pain threshold vs model group
  analgesic effect 1.5 hours after oral administration: obvious analgesic effect
[3]
  long-acting (24 hours) analgesic effect while AMPK is inhibited: eliminated
  short-acting (1.5 hours) analgesic effect while AMPK is inhibited: not affected
[4]
  analgesic effect (Von Frey mechanical pain threshold): obvious analgesic effect
[5]
  movement of the mice in an open field (sedative effect): obviously reduces movement of the mice in an open field
AMPK
  phosphorylation level of the AMPK: significantly up-regulate
